Data taken from US20240174723A1, “STAPLED ANTIMICROBIAL PEPTIDES (STAMPS) AND USES THEREOF” (Lytica Therapeutics, Inc., priority 2021, published 2024).
Values after ≈ are worked out from the molar mass of the structure shown. Positions of bridges follow the written chain, without caps; N, C: chain ends. Non-standard residues stand in square brackets, D forms with d. Residues, ends and D or L forms follow the SMILES beside them. S5 = C=CCCC[C@](C)(N)C(=O)O; Dap = NC[C@H](N)C(=O)O; PEG2 = NCCOCCOCCC(=O)O

Legend:
A. baumannii = type: cell-based, Acinetobacter baumannii
Procedure, shortened: (§1)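 Broth microdilution adapted from CLSI in Mueller-Hinton broth or cation-adjusted MHB. Overnight 37 °C cultures were regrown 3-4 h, then added to serially diluted peptide at a final 5×10^5 CFU/ml. After 20-24 h at 37 °C, MIC was the lowest peptide concentration with no visible growth.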

in vitro [1] = type: cell-based; settings: human, Inhibitory Concentration at 50% Cytotoxicity (IC50) Human Liver Cells (HepG2)
Procedure, shortened: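 HepG2 cells in EMEM with 10% FBS, allowed 4 h to attach, then exposed to serial dilutions of StAMPs (from a 5 mg/mL water stock) or vehicle. After 48 h at 37 °C, viability read by CellTiter-Glo luminescence.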

E. coli = type: cell-based, Escherichia coli
Procedure, shortened: as §1

S. aureus = type: cell-based, Staphylococcus aureus
Procedure, shortened: as §1

in vitro [2] = type: cell-based; settings: human
Method: Cell culture: RPTEC were maintained in MEM media supplemented with growth factors. HEPG2 cell line was maintained in Eagle's Minimum Essential Medium (EMEM) supplemented with fetal bovine serum to a final concentration of 10%.
90 minute cytotoxicity assay: Cells were plated in a 96-well format, and after overnight incubation, media was replaced with fresh media. Serial dilutions of StAMPs from a 5 mg/mL water stock, or vehicle, were added to the cells in a final volume of 100 μl. After incubating at 37° C. for 90 min, 50 μl of cell culture media was transferred to a clear 96-well plate, incubated with 50 μl of lactate dehydrogenase (LDH) assay reagent for 10 min, and absorbance measured at 490 nm on a microplate reader.
Renal toxicity was measured after 90 minutes of incubation, while liver toxicity was measured after 48 hours of incubation with StAMPs. N/A=not tested. The following apply to all peptides (i.e., StAMPs) listed in Tables A-C: Crosslinks (X^1—X^2 and X^3—X^4): (alk); N-terminus: —NH2; C-terminus: amidated with —NH2; counterion: Cl^−. The following apply to all peptides (i.e., StAMPs) listed in Table D: Crosslinks (X^1—X^2 and X^3—X^4): (alk); N-terminus: —NH2; C-terminus: as shown in table; counterion: Cl^−.
StAMP Micelle Formulation: DSPE-MPEG(2000) was suspended in buffered saline at 50-100 mg/mL overnight. StAMP stock solutions at 5-20 mg/mL in buffered saline were prepared and equal volumes of micelle and StAMP stock solution were mixed at the desired StAMP:Lipid ratio. Suspensions were allowed to sit for 5-10 minutes at room temperature before being used in in vitro and in vivo assays.
In Table E, the StAMP is StAMP 4 (Table A) and “Lipid”=DSPE-MPEG(2000).

K. pneumoniae = type: cell-based, Klebsiella pneumoniae
Procedure, shortened: as §1

P. aeruginosa = type: cell-based, Pseudomonas aeruginosa
Procedure, shortened: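 Broth microdilution adapted from CLSI in MHB or cation-adjusted MHB; log-phase P. aeruginosa at 5×10^5 CFU/ml final with serially diluted stapled peptides. Incubated 20-24 h at 37 °C; MIC is the lowest concentration without visible growth.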

| SMILES | Minimum Inhibitory Concentration (MIC) A. baumannii (A. baumannii) [µg/mL] | IC50 at 48 hours (in vitro [1]) [µg/mL] | Minimum Inhibitory Concentration (MIC) E. coli (E. coli) [µg/mL] | Minimum Inhibitory Concentration (MIC) S. aureus (S. aureus) [µg/mL] | IC50 at 90 min (in vitro [2]) [µg/mL] | Minimum Inhibitory Concentration (MIC) K. pneumoniae (K. pneumoniae) [µg/mL] | Minimum Inhibitory Concentration (MIC) P. aeruginosa (P. aeruginosa) [µg/mL] |
| --- | --- | --- | --- | --- | --- | --- | --- |
| CC(C)[C@@H]1NC(=O)[C@@](C)(NC(=O)[C@H](C)NC(=O)[C@H](CCCCN)NC(=O)CNC(=O)[C@H](Cc2ccccc2)NC(=O)[C@H](CCCCN)NC(=O)[C@H](CCCCN)NC(=O)[C@H](CCCCN)NC(=O)[C@H](CCCCN)NC(=O)[C@H](CCCCN)NC(=O)[C@]2(C)CCCC=CCCC[C@](C)(NC(=O)CN)C(=O)NCC(=O)N[C@@H](CCCCN)C(=O)N[C@@H](Cc3ccccc3)C(=O)N2)CCCC=CCCC[C@@](C)(C(=O)N[C@@H](C)C(=O)N[C@@H](CCCCN)C(=O)N[C@@H](CCCCN)C(=O)NCCOCCOCCC(N)=O)NC(=O)[C@H](CCC(=O)O)NC(=O)CNC1=O [compound 72] (H-G[S5]GKF[S5]KKKKKFGKA[S5]VGE[S5]AKK[PEG2]-NH2; staple 2-6, 16-20) | 2 | 275 (≈ 101 µM) | 2 | >64 | 200 (≈ 73.4 µM) | 4 | 4 |
| CC(C)[C@@H]1NC(=O)[C@@](C)(NC(=O)[C@H](C)NC(=O)[C@H](CCCCN)NC(=O)CNC(=O)[C@H](Cc2ccccc2)NC(=O)[C@H](CCCCN)NC(=O)[C@H](CCCCN)NC(=O)[C@H](CCCCN)NC(=O)[C@H](CO)NC(=O)[C@H](CCCCN)NC(=O)[C@]2(C)CCCC=CCCC[C@](C)(NC(=O)CN)C(=O)NCC(=O)N[C@@H](CCCCN)C(=O)N[C@@H](Cc3ccccc3)C(=O)N2)CCCC=CCCC[C@@](C)(C(=O)N[C@@H](C)C(=O)N[C@@H](CCCCN)C(=O)N[C@@H](CCCCN)C(N)=O)NC(=O)[C@H](CCC(=O)O)NC(=O)[C@H](Cc2ccccc2)NC1=O [compound 20] (H-G[S5]GKF[S5]KSKKKFGKA[S5]VFE[S5]AKK-NH2; staple 2-6, 16-20) | 2 | 105 (≈ 40.2 µM) | 2 | 64 | 70 (≈ 26.8 µM) | 2 | 2 |
| CC(C)[C@@H]1NC(=O)[C@@](C)(NC(=O)[C@H](C)NC(=O)[C@H](CN)NC(=O)CNC(=O)[C@H](Cc2ccccc2)NC(=O)[C@H](CN)NC(=O)[C@H](CN)NC(=O)[C@H](CN)NC(=O)[C@H](CN)NC(=O)[C@H](CN)NC(=O)[C@]2(C)CCCC=CCCC[C@](C)(NC(=O)CN)C(=O)NCC(=O)N[C@@H](CN)C(=O)N[C@@H](Cc3ccccc3)C(=O)N2)CCCC=CCCC[C@@](C)(C(=O)N[C@@H](C)C(=O)N[C@@H](CN)C(=O)N[C@@H](CN)C(=O)NCC(N)=O)NC(=O)[C@H](CCC(=O)O)NC(=O)CNC1=O [compound 76] (H-G[S5]G[Dap]F[S5][Dap][Dap][Dap][Dap][Dap]FG[Dap]A[S5]VGE[S5]A[Dap][Dap]G-NH2; staple 2-6, 16-20) | 16 | > 200 | 1 | 64 | > 200 | 16 | 16 |
